Laboratory results published in patent publication US20120270771A1, “APOLIPOPROTEIN A-1 MIMIC PEPTIDES, AND THERAPEUTIC AGENT FOR TREATING HYPERLIPIDEMIA AND DISEASES RELATED TO HYPERLIPIDEMIA COMPRISING SAME” (SNU R&DB FOUNDATION, priority 2009, published 2012).
Square brackets hold non-standard residues; d marks the D form. 2Nal = N[C@@H](Cc1ccc2ccccc2c1)C(=O)O

What was measured:
[1] = tryptophan fluorescence measurement of peptide with or without liposome (LUV); type: binding; settings: for dependence of tryptophan fluorescence intensity on the relative amount of cholesterol in the liposome: LUVs containing cholesterol at 0%, 10%, 20%, 30% and 40%, FIG. 5; for tryptophan fluorescence intensity measured under LUV condition (ratio with or without liposome): 1 μM peptide, liposome 0.1 mg/ml; for tryptophan fluorescence intensity measured under LUV condition (ratio with or without liposome) / increase in fluorescence intensity in the lipid environment when compared to in aqueous solution: FIG. 4; for increase in fluorescence intensity in the lipid environment when compared to in aqueous solution: tryptophan fluorescence
Experimental: Total 10 mg of lipid compound was prepared by mixing phosphatidylcholine (soybean) and the LUVs containing cholesterol at 0%, 10%, 20%, 30% and 40%. The lipid compound was dissolved in 2 mL of solution containing 2:1 volumes of chloroform and methanol. The solvent is removed by using distillation condensation device and yielding a thin lipid film in the flask. The lipid film is hydrated by adding 1 mL of tertiary distilled water. Liposomes of the same size were generated by extruding the solution through a […] filter for 5 times, and 0.1 μm polycarbonate filter for 5 times using a cylinder fitted with a high pressure regulator. The amount of cholesterol contained in the liposome was measured by using cholesterol Lab-assay kit.
Fluorescence Anisotropy was measured using AMINCO-Bowman Series Luminescence Spectrometer at 20° C. For the buffer system, 10 mM HEPES (N-2-Hydroxyethylpiperazine-N′-2-Ethanesulfonic Acid, pH 7.4) containing 140 mM NaCl, 1 mM EDTA (ethylenediaminetetraacetic acid) was used. The concentration of the peptide was 500 μM and was kept at 0° C. The fluorescence emission spectrum was monitored by adding […] of peptide with 499 μl buffer solution to a final concentration of 1 μM. Liposome was added to the above buffer and peptide mixture solution to the final concentration of 0.1 mg/ml. The ratio of the intensity was calculated by measuring the spectrum in the condition of with or without liposome.

[2] = tested on: macrophage cell line; assay: cholesterol efflux assay in macrophage cells loaded with 3H-labeled cholesterol; type: cell-based, Human; settings: 20 μM peptide, 4 hr incubation
Experimental: The present inventors determined the calculated mass value of the Apo A-I mimic peptide and the actual mass value of the A-1 mimic peptide acquired following the synthesis and purification step (see Table 1). In addition, cholesterol efflux was analyzed to screen the peptides. Human macrophage cells were treated with ^3H radioisotope labeled cholesterol. Next, the cells were treated with each of the peptide prepared from above. The amount of high density lipoprotein (HDL) produced was analyzed by measuring the amount of intracellular cholesterol and extracellular cholesterol released from the macrophage. […] There was a significant increase in cholesterol efflux when phenylalanine was substituted with tryptophan or naphthylalanine (see FIG. 3).
In order to screen which of the peptide synthesized from Example 1 mimics the Apo A-I, cholesterol efflux assay was performed by treating the macrophage cell line with the peptides. In particular, DMEM (Dulbecco's Modified Eagle medium) containing penicillin-streptomycin and 10% FBS (Fetal Bovine Serum) was used as the cell culture medium. […] The culture medium and the cells were separated to measure the radioactivity using Liquid Scintillation Counter. The level of cholesterol efflux was determined by measuring the ratio of isotope labeled cholesterol remained in the cell and in the cell culture medium, respectively.

Row | Substance | dependence of tryptophan fluorescence intensity on the relative amount of cholesterol in the liposome [1] | tryptophan fluorescence intensity measured under LUV condition (ratio with or without liposome) [1] | increase in fluorescence intensity in the lipid environment when compared to in aqueous solution [1] | increase in cholesterol efflux when compared to peptide 4F [2]
1 | Ac-DWFAKDYFKKAFVEEFAK (Ac-DWFAKDYFKKAFVEEFAK-NH2) [Sc-4F, negative control group of 4F, reference compound] | irrelevant to the concentration of cholesterol | – | – | –
2 | Ac-DWFKAFYDKVAEKFKEAF (Ac-DWFKAFYDKVAEKFKEAF-NH2) [4F, existing Apo A-I mimic peptide, first generation amphiphilic alpha helix peptide containing 4 phenylalanine, reference compound] | irrelevant to the concentration of cholesterol | about 1.9 | – | –
3 | Ac-EWFKAFYDKVAEKFKEAF (Ac-EWFKAFYDKVAEKFKEAF-NH2) [1a] | – | ~2.1 | about 2.1 fold | –
4 | Ac-EWNal2KAFYDKVAEKFKEANal2 (Ac-EW[2Nal]KAFYDKVAEKFKEA[2Nal]-NH2; SMILES CC(=O)N[C@@H](CCC(=O)O)C(=O)N[C@@H](Cc1c[nH]c2ccccc12)C(=O)N[C@@H](Cc1ccc2ccccc2c1)C(=O)N[C@@H](CCCCN)C(=O)N[C@@H](C)C(=O)N[C@@H](Cc1ccccc1)C(=O)N[C@@H](Cc1ccc(O)cc1)C(=O)N[C@@H](CC(=O)O)C(=O)N[C@@H](CCCCN)C(=O)N[C@H](C(=O)N[C@@H](C)C(=O)N[C@@H](CCC(=O)O)C(=O)N[C@@H](CCCCN)C(=O)N[C@@H](Cc1ccccc1)C(=O)N[C@@H](CCCCN)C(=O)N[C@@H](CCC(=O)O)C(=O)N[C@@H](C)C(=O)N[C@@H](Cc1ccc2ccccc2c1)C(N)=O)C(C)C) [2s] | significant increase of fluorescence intensity according to the increased concentration of the cholesterol inside the liposome | about 4.3 | about 4.30 fold | about 300%
